Laboratory results published in US10865451B2, “Non-invasive blood based monitoring of genomic alterations in cancer” (Dana-Farber Cancer Institute, Inc., priority 2013, dated 2020).

Tested on: advanced EGFR-mutant NSCLC
Assay: Serial ddPCR plasma genotyping of patients on first-line erlotinib (NCT00997334) until RECIST progression
Type: in vivo, human
Protocol: For each eligible patient, plasma was collected during routine care either prior to first-line therapy or at a subsequent time when the cancer was progressing on therapy. Additional follow-up specimens were collected if possible during routine care. Each specimen was collected into one 10 mL EDTA-containing vacutainer and was spun into plasma within 4 hours of collection. Plasma cfDNA was extracted and frozen at −80 C until genotyping. Total DNA concentration in extracted plasma was measured via a modified quantitative PCR assay for human long interspersed element 1 (LINE-1).
Each droplet is individually assigned a positive or negative value based on the fluorescent intensity. The amount of positives and negatives are read by a flow cytometer and are used to calculate the concentration of an allele. To minimize bias and to ensure the integrity of results, the laboratory was blinded to the tumor genotype when testing plasma specimens, but results were selectively unblinded for data analysis. Each plasma sample was analyzed in triplicate with an increasing quantity of input DNA (e.g. 1 μL, 2 μL, and 4 μL). Results were normalized to a mean concentration of mutant alleles per μL DNA input, and reported as copies of mutant allele per 100 μL of DNA, the approximate DNA quantity isolated from one blood specimen.

SMILES: C#Cc1cccc(Nc2ncnc3cc(OCCOC)c(OCCOC)cc23)c1 [erlotinib]
- patients exhibiting a plasma response (drop of plasma level of EGFR sensitizing mutation) (9 analysed patients with EGFR exon 19 deletion and detectable pretreatment plasma genotype): 9 patients
- patients demonstrating a complete plasma response (of 9 analysed patients): 8 patients
- patients with plasma levels of mutant EGFR again detected at objective progression (plasma T790M also identified) (of 9 analysed patients, at RECIST progression): 6 patients
